# Test results from patent US11235001B2, “RUNX inhibitor” (KYOTO UNIVERSITY, priority 2016, dated 2022).
# Like-named read-outs stand apart in the source and are kept apart here.
# What was measured:
# E-selectin = assay: In vivo E-selectin expression in bone marrow endothelial cells; design: species or system mouse; settings: normal mice, 320 μg/kg, 6 times over 2 weeks, 24 hours after last administration
# Description: Changes in expression levels of E-selectin in bone marrow endothelial cells by Chb-M′ administration were examined in vivo. To normal mice, DMSO (control) or Chb-M′ was administered 6 times over 2 weeks (320 μg/kg per administration). Twenty-four hours after the last administration (in a state in which Chb-M′ had been eliminated from the body of the mouse), the femur and tibia were harvested, from them bone marrow hematopoietic cells were removed, and endothelial cells were collected and subjected to FACS analysis. CD45 negative cells (bone marrow cells without bone marrow hematopoietic cells) were gated, and a ratio between CD31 positive cells (vascular endothelial marker-positive) and Lin-negative CD45-negative CD31-positive E-selectin-positive cells (E-selectin-positive bone marrow vascular endothelial cells) was analyzed by FACS.
# c-kit = assay: FACS of cell surface c-kit, LAD2 mast cells; type: cell-based, human; settings: LAD2 (wild-type c-kit), 10 μM, 18-hour treatment; DMSO 68.3
# Description: (§1) Mast cells cause symptoms or diseases such as allergic reaction by receptor-mediated activation. In addition, c-kit signal transduction enhances release of chemical mediators from stimulated mast cells. The effect of the RUNX inhibitor on human mast cells was examined. As human mast cells, a LAD2 cell line (expressing wild-type c-kit) and an HMC-1.2 cell line (expressing mutated c-kit) were used. The HMC-1.2 cell line has KIT D816V mutation and V560G mutation. Wild-type c-kit is a SCF receptor and the cell proliferation is dependent on SCF. Accordingly, regarding the LAD2 cell line, 50 ng/ml of SCF was administered and experiments were performed as described below. The HMC-1.2 cell line has a mutation in c-kit and the cell proliferation is independent of SCF. Accordingly, regarding the HMC-1.2 cell line, SCF was not administered and experiments were performed as described below. As the RUNX inhibitor, Chb-M′ was used. […]
# (§2) To the LAD2 cell line, 10 μM Chb-M′ was administered. After 3 hours and 18 hours, different antibodies were used for immunostaining of c-kit expressed on the cell surface, and the expression levels were analyzed by FACS (fluorescence-activated cell sorter). […] After 18 hours, different antibodies were used for immunostaining of c-kit expressed on the cell surface, and the expression levels were analyzed by FACS. […]
# MLL-ENL leukemia cells = assay: Homing assay of MLL-ENL leukemia cells; type: in vivo, mouse; settings: B6 mice, 320 μg/kg, 6 times over 2 weeks; 24 hours after cell injection
# [1] = system: c-kit (KIT D816V mutation and V560G mutation); assay: FACS of cell surface c-kit, HMC-1.2 mast cells; type: cell-based, human; settings: HMC-1.2 (mutated c-kit), 10 μM, 18-hour treatment; DMSO 113
# Description: as §1, §2
# MKN45 cells = assay: Xenograft gastric cancer mouse model (MKN45); type: in vivo
# [2] = system: RUNX family (RUNX1, RUNX2 and RUNX3); assay: Gene expression microarray in MV4-11 cells vs RUNX family knockdown; type: cell-based, human; settings: 1 μM, 6 hours, top 500 up- and down-regulated genes
# ROR1 and ROR2 = assay: Western blotting of ROR1 and ROR2 in DAOY; type: cell-based, human; settings: 1 μM, 24 hours
# Description: Cells were washed twice with ice cold phosphate-buffered saline (PBS) and harvested in protein lysis buffer [50 mM Tris (pH 7.4), 100 mM NaCl, 0.1 mM EDTA, 1 mM phenylmethylsulfonyl fluoride, 1 mM β-glycerophosphate, 2.5 mM sodium pyrophosphate, 1 mM Na3VO4, lx protease inhibitor (Roche) and PhosSTOP (Roche)]. Whole cell extracts were separated by SDS-polyacrylamide gel electrophoresis (SDS-PAGE) and electrotransferred onto polyvinylidene difluoride membranes. Membranes were probed with the following antibodies: anti-Ctip1 antibody (Abcam, ab19487), anti-TRIM24 antibody (Bethyl Laboratories, Inc), anti-RUNX1 antibody (A-2), anti-GAPDH (FL-335), anti-p21 (C-19), anti-Bax (N-20) antibodies (Santa Cruz Biotechnology, Inc.), anti-RUNX2, anti-RUNX3, anti-p53 antibodies (Cell Signaling Technology), anti-CBFβ antibody (FL-182, Santa Cruz Biotechnology, Inc.), anti-cleaved caspase-3 antibody (5A1E, Cell Signaling Technology), anti-PARP antibody (46D11, Cell Signaling Technology). […] Blots were detected using Chemi-Lumi One Super (nacalai tesque, Inc.) and ChemiDoc™ XRS+ Imager (Bio-Rad Laboratories, Inc.), as recommended by the manufacturers. Protein levels were quantified with Image Lab Software (Bio-Rad Laboratories, Inc.).
# To DAOY cells, 1 μM Chb-M′ was administered. […] The expression of ROR1 was too weak to be detected.
structure (smiles),measurement,setting,value
CN(C)CCCNC(=O)c1cc(NC(=O)c2cc(NC(=O)c3cc(NC(=O)c4cc(NC(=O)CCCNC(=O)c5nc(NC(=O)c6nc(NC(=O)c7cc(NC(=O)c8nc(NC(=O)CCNC(=O)CCCc9ccc(N(CCCl)CCCl)cc9)cn8C)cn7C)cn6C)cn5C)cn4C)cn3C)cn2C)cn1C [Chb-M′],E-selectin expression levels in bone marrow endothelial cells,E-selectin,significantly decreased
same,CI (Fa = 0.5),"KG1a; p53null, concomitant use of Chb-M′ and PRIMA-1, Chou-Talalay, CI<1 synergism",2.01
same,IC50,"KG1a; read-out: IC50 (μM) of Chb-M′ in concomitant use with PRIMA-1 (5 μM), p53null, 48 hours, with 5 μM PRIMA-1",> 100 µM
same,IC50,"KG1a; read-out: IC50 (μM) of Chb-M′ single agent administration, p53null, 48 hours",> 100 µM
same,MFI (mean fluorescent intensity) of surface c-kit,c-kit,48.8
same,Number of MLL-ENL cells in bone marrow vs control group,MLL-ENL leukemia cells,smaller
same,Number of leukemia cells in spleen,MLL-ENL leukemia cells,increased
same,MFI (mean fluorescent intensity) of surface c-kit,[1],100
same,Tumor growth (tumor volume),"MKN45 cells; MKN45 xenograft, 320 μg/kg IV twice a week, to day 35",almost no change in tumor size
same,Size of gastric cancer (IVIS),"MKN45 cells; day 21 after transplantation, after total 4 administrations",decreased
same,Size of gastric cancer (IVIS),"MKN45 cells; day 35 after transplantation, after total 8 administrations",slightly grew
same,Gene expression pattern vs cells with all RUNX family members knockdown,[2],significantly correlated
same,Expression of ROR2 at a protein level,ROR1 and ROR2,suppressed
